{"source": "patent US20130084640A1", "about": "“ANIMAL CELL CULTURE MEDIA COMPRISING NON ANIMAL OR PLANT DERIVED NUTRIENTS” (LIFE TECHNOLOGIES CORPORATION, priority 1999, published 2013)", "tested_on": "VERO cells", "assay": "VERO cell growth in basal medium with non-animal supplements (mean cell count over subcultures, RGE)", "assay_type": "cell-based", "description": "No attachment factors or coating of the plastic surface are required for the culture of VERO cells. At 3 to 4 days the cells were removed using standard cell culture techniques. The surface of the culture was first washed with Dulbecco's Phosphate Buffered Saline (DPBS) and then 1.0 ml Trypsin-EDTA (Life Technologies, Inc., Rockville, Md.) was added. The digest was allowed to sit on the cell surface for 3 to 5 minutes or until the cells rounded up and began to detach from the surface of the flask. The cells were completely detached by vigorous agitation against the palm of the hand and then 1.5 ml of soybean trypsin inhibitor was added to quickly neutralize enzymatic activity. The cells were counted under the microscope using trypan blue straining solution and new cultures plated at 2.5×10^3 cells per 25 cm^2 flask. Incubation was at 37° C. in 5% CO^2 in air. The cultures were passaged for a total of 4 subcultures and the mean cells per subculture determined from the counts of the final 3 subcultures (P2+P3+P4[…]). Initial studies were designed to formulate a culture medium completely devoid of animal proteins that supports the culture of animal cells. To this end, enzymatic hydrolysates of a variety of non-animal sources were examined as supplements in the basal medium described in Example 1. Hydrolysates of wheat gluten (HYPEP 4301 I, designated below us “Wheat Hydrolysate 1”, and HYPEP 8382, designated below as “Wheat Hydrolysate 2”). soy (HY—SOY) and rice (HYPEP 5115), as well as an extract of baker's yeast (HY-YEST 444) were obtained from Quest International (Norwich, N.Y.) and were formulated into the basal medium of Example 1 at 200 mg/liter. […] To more closely examine their efficacy as supplements for the present media, rice hydrolysates were supplemented into basal media at differing concentrations. These media were then used to examine VERO cell growth as described above. Cell counts were compared to those obtained in basal medium that was unsupplemented (negative control) or to Earle's Modified Eagle's Medium (EMEM) supplemented with 5% fetal bovine serum (FBS; positive control). […] To examine additional sources of non-animal peptides and vitamins as supplements for the present media, extracts of yeast, soy and potato were obtained from Quest International (Norwich, N.Y.) and were supplemented into basal media at differing concentrations. Yeast extract (YE) was also examined as a co-supplement with rice hydrolysate. These media were then used to examine VERO cell growth as described above. Cell counts were compared to those obtained with EMEM supplemented with 5% FBS. […] RGE was calculated as described in Example 2. To more closely examine the use of yeast extract as a supplement in the present media, preparations of YE or an ultrafiltrate of YE (“YEU”) were supplemented into basal media in the presence or absence of 100 mg/liter of rice hydrolysate. These media were then used to examine VERO cell growth as described above. Cell counts were compared to those obtained in EMEM supplemented with 5% FBS (positive control). […] RGE was calculated as described in Example 2. […] These media were then used to examine VERO cell growth as described above. Cell counts were compared to those obtained in basal medium that was unsupplemented (negative control) or to EMEM supplemented with 5% FBS (positive control). […] RGE was calculated as described in Example 2. […] The results in this table represent the mean cells per 25 cm^2 flask in duplicate over 4 subcultures."}
{"substance": "EGF: recombinant human EGF (epidermal growth factor)", "values": [{"measurement": "Mean Cell Count", "setting": "Table 6, 0.5 mg/L in basal medium", "value": "8.0 × 10^5"}, {"measurement": "RGE", "setting": "Table 6, 0.5 mg/L, relative to 5% FBS control", "value": 34}, {"measurement": "Mean Cell Count", "setting": "Table 6, 1 mg/L in basal medium", "value": "11.4 × 10^5"}, {"measurement": "RGE", "setting": "Table 6, 1 mg/L, relative to 5% FBS control", "value": 49}, {"measurement": "RGE", "setting": "Table 6, 5 mg/L, relative to 5% FBS control", "value": 51}, {"measurement": "Mean Cell Count", "setting": "Table 6, 10 mg/L in basal medium", "value": "22.6 × 10^5"}, {"measurement": "Mean Cell Count", "setting": "Table 7, 5 mg/L", "value": "20.2 × 10^5"}, {"measurement": "RGE", "setting": "Table 7, 5 mg/L, relative to 5% FBS control", "value": 76}, {"measurement": "Mean Cell Count", "setting": "Table 7, 6 mg/L", "value": "19.3 × 10^5"}, {"measurement": "RGE", "setting": "Table 7, 6 mg/L, relative to 5% FBS control", "value": 73}, {"measurement": "Mean Cell Count", "setting": "Table 7, 7 mg/L", "value": "19.6 × 10^5"}, {"measurement": "RGE", "setting": "Table 7, 7 mg/L, relative to 5% FBS control", "value": 74}, {"measurement": "Mean Cell Count", "setting": "Table 7, 8 mg/1.", "value": "21.0 × 10^5"}, {"measurement": "RGE", "setting": "Table 7, 8 mg/1., relative to 5% FBS control", "value": 79}, {"measurement": "Mean Cell Count", "setting": "Table 7, 9 mg/L", "value": "20.7 × 10^5"}, {"measurement": "RGE", "setting": "Table 7, 9 mg/L, relative to 5% FBS control", "value": 78}, {"measurement": "Mean Cell Count", "setting": "Table 7, 10 mg/L", "value": "19.5 × 10^5"}, {"measurement": "RGE", "setting": "Table 7, 10 mg/L, relative to 5% FBS control", "value": 73}, {"measurement": "RGE", "setting": "Table 8, 5 mg/L, as % of 0 mg/L control", "value": 137, "unit": "%"}, {"measurement": "Mean Cell Count", "setting": "Table 8, 5 mg/L, mean cells per 25 cm^2 flask in duplicate over 4 subcultures", "value": "7.0 × 10^5"}, {"measurement": "RGE", "setting": "Table 8, 6 mg/L, as % of 0 mg/L control", "value": 118, "unit": "%"}, {"measurement": "Mean Cell Count", "setting": "Table 8, 6 mg/L, over 4 subcultures", "value": "6.0 × 10^5"}, {"measurement": "RGE", "setting": "Table 8, 7 mg/L, as % of 0 mg/L control", "value": 139, "unit": "%"}, {"measurement": "Mean Cell Count", "setting": "Table 8, 7 mg/L, over 4 subcultures", "value": "7.1 × 10^5"}, {"measurement": "RGE", "setting": "Table 8, 8 mg/L, as % of 0 mg/L control", "value": 143, "unit": "%"}, {"measurement": "Mean Cell Count", "setting": "Table 8, 8 mg/L, over 4 subcultures", "value": "7.3 × 10^5"}, {"measurement": "RGE", "setting": "Table 8, 9 mg/L, as % of 0 mg/L control", "value": 145, "unit": "%"}, {"measurement": "Mean Cell Count", "setting": "Table 8, 9 mg/L, over 4 subcultures", "value": "7.4 × 10^5"}, {"measurement": "RGE", "setting": "Table 8, 10 mg/L, as % of 0 mg/L control", "value": 133, "unit": "%"}, {"measurement": "Mean Cell Count", "setting": "Table 8, 10 mg/L, over 4 subcultures", "value": "6.8 × 10^5"}]}
